pIC50, pKd: −log10 of the molar value. Read-outs that look alike come from different tables or passages of the source.

Assay [1] has as its target T1, CSF1R (Homo sapiens, UniProt P07333). Put plainly: Cellular CSF1R inhibition ELISA (p-CSF1R, M-CSF-induced) using THP-1 cells. The assay is classed as cell-based. Details: THP-1 cells act as a model for human monocytes; endogenous in cells; host or cells: THP-1. From the text:
The normal proto-oncogene c-fms encodes the macrophage growth factor (M-CSF, also known as CSF1) receptor involved in growth, survival, and differentiation along the monocyte-macrophage lineage. THP-1 cells act as a model for human monocytes. It confirms that an increased phosphorylation of CSF1R (p-CSF1R) can be observed, when induced by CSF1R ligand, CSF1.
The THP-1 cells should be maintained from 5×10^5 to 1×10^6 cells/ml in the cell culture flask. After centrifugation, the supernatant is aspirated. The cell pellet is re-suspended with pre-warmed growth medium (RPMI1640, 10% FBS, 0.05 mM 2-Mercaptoethanol) and cells are separated by pipetting 6 times up and down with a 10 ml serological pipette. The cell suspension has to be diluted to a final concentration of 2×10^5 cells per 80 μl with pre-warmed growth medium. 80 μl of cell suspension is added to all wells of plates. Cell-plates are incubated at 37° C./5% CO2. Dissolve compound in 100% DMSO to make 10 mM stock solutions (Aliquots stored in the Nitrogen Cabinet). Dilute 10 mM compounds solutions for 2-fold in 100% DMSO to get 5 mM solutions (10 μl+10 μl DMSO), and then make a 3-fold serial dilution (10 μl+20 μl DMSO) for 10 doses. For reference compounds: Dilute 10 mM compounds solutions for 20-fold in 100% DMSO to get 0.5 mM solutions (2 μl+38 μl DMSO), and then make a 3-fold serial dilution (10 μl+20 μl DMSO) for 10 doses. Transfer 2 μl diluted compounds to 198 μl medium to get solution of 50 μM concentration at top point for compounds and 5 μM for reference compounds. Then transfer 20 μl cpd solution into assay plate (Duplicate wells). The plate is incubated at 37° C./5% CO2 for 24 h. The final concentration of DMSO in all wells is […]. Reconstitute human M-CSF at 50 μg/ml in sterile water. (Aliquots stored in −80° C.). 1:1000 dilute human M-CSF by fresh medium to 50 ng/ml. After 24 h compounds treatment, transfer 25 μl diluted human M-CSF (50 ng/ml) to cell plate according to the plate map. The final concentration of human M-CSF in all wells is 10 ng/ml.
The plates is incubated at 37° C./5% CO2 for 5 min. In the beginning the appropriate amount of lysis buffer complete (100 μL/well) is prepared and stored on ice. After 5 min human M-CSF stimulation, wash plates once with 300 μL ice cold PBS. Then 100 μl lysis buffer is added to each well. The plate is shacked for 40 min at 4° C. Plates can now be stored at −20° C. After equilibrate the micro-well strips at room temperature, break off the required number of micro-wells. Place the micro-wells in the strip holder. Unused micro-wells must be resealed and stored at 4° C. immediately. Add 90 μl of cell lysate to the appropriate well. Seal with tape and press firmly onto top of micro-wells. Incubate the plate for 2 h at 37° C. Gently remove the tape and wash wells 4 times with 1× Wash Buffer, 200 μl each time for each well. Add 100 μl of reconstituted Detection Antibody (green color) to each well. Seal with tape and incubate the plate at 37° C. for 1 h. Repeat wash procedure. Add 100 μl of reconstituted HRP-Linked secondary antibody to each well. Seal with tape and incubate the plate for 30 min at 37° C. Repeat wash procedure. Add 100 μl of TMB Substrate to each well. Seal with tape and incubate the plate for 10 min at 37° C. or 30 min at 25° C. Calculations and Formulas: The following calculations and formulas are used for data analysis using XL Fit software: The curve fitting was made using the Sigmoidal Dose-Response Model (Fit model, 205).
(In general: An ELISA detects its analyte on a solid surface through an enzyme-linked reagent.)

Assay [2] has as its target T1, CSF1R. Put plainly: KINOMEscan competition binding assay for CSF1R. More on the design: DNA tag for qPCR (not a peptide); host or cells: E. coli/T7 phage or HEK-293. The settings on record: for pKd: read-out: CSF1R kinase binding activity (Kd). As for the experimental part: KINOMEscan™ is based on a competition binding assay that quantitatively measures the ability of a compound to compete with an immobilized, active-site directed ligand. The assay is performed by combining three components: DNA-tagged kinase; immobilized ligand; and a test compound. The ability of the test compound to compete with the immobilized ligand is measured via quantitative PCR of the DNA tag.
E. coli were grown to log-phase and infected with T7 phage and incubated with shaking at 32° C. until lysis. The lysates were centrifuged and filtered to remove cell debris. The remaining kinases were produced in HEK-293 cells and subsequently tagged with DNA for qPCR detection. Streptavidin-coated magnetic beads were treated with biotinylated small molecule ligands for 30 minutes at room temperature to generate affinity resins for kinase assays. The liganded beads were blocked with excess biotin and washed with blocking buffer (SeaBlock (Pierce), 1% BSA, 0.05% Tween 20, 1 mM DTT) to remove unbound ligand and to reduce non-specific binding. Binding reactions were assembled by combining kinases, liganded affinity beads, and test compounds in 1× binding buffer (20% SeaBlock, 0.17×PBS, 0.05% Tween 20, 6 mM DTT). Test compounds were prepared as 111× stocks in 100% DMSO. Kds were determined using an 11-point 3-fold compound dilution series with three DMSO control points. All compounds for Kd measurements are distributed by acoustic transfer (non-contact dispensing) in 100% DMSO. The compounds were then diluted directly into the assays such that the final concentration of DMSO was 0.9%. In case of % inhibition, test compounds were prepared as 40× stocks in 100% DMSO and directly diluted into the assay. All reactions performed in polypropylene 384-well plate. Each was a final volume of 0.02 ml. The assay plates were incubated at room temperature with shaking for 1 hour and the affinity beads were washed with wash buffer (1×PBS, 0.05% Tween 20). The beads were then re-suspended in elution buffer (1×PBS, 0.05% Tween 20, 0.5 μM non-biotinylated affinity ligand) and incubated at room temperature with shaking for 30 minutes. The kinase concentration in the eluates was measured by qPCR.
The CSF1R kinase binding activity results are shown in tables 1 (Kd) and 2 (percent inhibition at a concentration of 0.1 uM of compound to be tested).
Binding constants (Kds) were calculated with a standard dose-response curve using the Hill equation: […]
The Hill Slope was set to −1.
Curves were fitted using a non-linear least square fit with the Levenberg-Marquardt algorithm.
Binding % inhibition were calculated with as below:
[formula] • negative control=DMSO (100% Ctrl) • positive control=control compound (0% Ctrl)

Where [3] appears, read: read-out: CSF1R kinase binding activity, Percent (%) inhibition.
Where [4] appears, read: read-out: CSF1R kinase binding activity, Range.

T1 sequence (P07333 20-972): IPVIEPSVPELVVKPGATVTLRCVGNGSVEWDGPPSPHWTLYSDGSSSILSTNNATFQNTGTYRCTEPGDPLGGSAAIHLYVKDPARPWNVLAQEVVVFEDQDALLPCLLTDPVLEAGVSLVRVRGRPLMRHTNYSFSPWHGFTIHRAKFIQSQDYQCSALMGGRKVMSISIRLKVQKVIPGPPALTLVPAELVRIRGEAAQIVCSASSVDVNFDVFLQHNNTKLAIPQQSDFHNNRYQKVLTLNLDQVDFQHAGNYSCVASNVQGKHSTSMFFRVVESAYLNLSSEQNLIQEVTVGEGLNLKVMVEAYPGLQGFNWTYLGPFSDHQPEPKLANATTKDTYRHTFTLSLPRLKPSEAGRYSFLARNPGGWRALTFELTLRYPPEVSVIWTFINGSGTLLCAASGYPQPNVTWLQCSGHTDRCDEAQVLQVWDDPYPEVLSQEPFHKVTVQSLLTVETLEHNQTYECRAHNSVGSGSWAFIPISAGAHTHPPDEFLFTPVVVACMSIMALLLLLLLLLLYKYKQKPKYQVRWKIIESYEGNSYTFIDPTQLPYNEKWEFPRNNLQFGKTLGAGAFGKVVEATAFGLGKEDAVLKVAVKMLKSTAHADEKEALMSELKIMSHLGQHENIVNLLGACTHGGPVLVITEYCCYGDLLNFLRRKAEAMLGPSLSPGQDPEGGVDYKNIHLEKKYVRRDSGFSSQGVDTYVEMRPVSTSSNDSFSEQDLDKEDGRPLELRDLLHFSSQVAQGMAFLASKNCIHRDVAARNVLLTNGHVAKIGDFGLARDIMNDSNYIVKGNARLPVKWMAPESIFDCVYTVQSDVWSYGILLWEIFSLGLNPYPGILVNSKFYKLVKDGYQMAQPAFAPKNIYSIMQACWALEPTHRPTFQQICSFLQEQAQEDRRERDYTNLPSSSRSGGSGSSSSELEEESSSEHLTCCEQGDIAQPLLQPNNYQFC

Usually pIC50 stands for −log10 of the IC50, conventionally taken in molar units. Lower therefore signals a large IC50. Usually pKd stands for the Kd on a negative log10 scale, so that one unit is a factor of ten. `CCn1cc(OCC(F)(F)F)c(C(=O)Nc2ccc(Oc3ccnc4cc(OC)c(OC)cc34)cn2)n1` [Compound 4] had a pIC50 against CSF1R [1] above 6.30. Further, the inhibition at 0.1 µM at CSF1R [2] (setting [3]) was 98%; on CSF1R [2] (setting [4]), at least 80%. Further, the pKd on CSF1R [2] was above 7.00.
Turning to `CCn1cc(OC(C)C)c(C(=O)Nc2ccc(Oc3ccnc4cc(OC)c(OC)cc34)cn2)n1` [Compound 6], the negative-log IC50 (pIC50) at CSF1R [1] is above 6.30. Further, the figures for the inhibition at 0.1 µM at CSF1R [2] (setting [3]) and on CSF1R [2] (setting [4]) were 97% and at least 80%, respectively. At CSF1R [2], the pKd is above 7.00.
For `CCCn1cc(OCC(F)(F)F)c(C(=O)Nc2ccc(Oc3ccnc4cc(OC)c(OC)cc34)cn2)n1` [Compound 7] the same measures were above 6.30, 97%, at least 80% and above 7.00.
On CSF1R [1], `CCn1cc(OCC2CCC2)c(C(=O)Nc2ccc(Oc3ccnc4cc(OC)c(OC)cc34)cn2)n1` [Compound 8] had a pIC50 above 6.30. For the same molecule, the inhibition at 0.1 µM is 94% on CSF1R [2] (setting [3]) and at least 80% at CSF1R [2] (setting [4]). Further, at CSF1R [2], the pKd was above 7.00.
For the molecule `COc1cc2nccc(Oc3ccc(NC(=O)c4nn(CCN(C)C)cc4OCC(F)(F)F)nc3)c2cc1OC` [Compound 9], at CSF1R [1], the pIC50 was above 6.30. Also, the inhibition at 0.1 µM is 92% at CSF1R [2] (setting [3]) and at least 80% on CSF1R [2] (setting [4]). Moreover, the pKd on CSF1R [2] was above 7.00.
`COCCn1cc(OCC(F)(F)F)c(C(=O)Nc2ccc(Oc3ccnc4cc(OC)c(OC)cc34)cn2)n1` [Compound 10] had a negative logarithm of the IC50 (pIC50) at CSF1R [1] above 6.30. Also, the inhibition at 0.1 µM at CSF1R [2] (setting [3]) is 98%; on CSF1R [2] (setting [4]), at least 80%. Besides, the pKd at CSF1R [2] is above 7.00.
For the molecule `CNCCn1cc(OCC(F)(F)F)c(C(=O)Nc2ccc(Oc3ccnc4cc(OC)c(OC)cc34)cn2)n1` [Compound 11], the pIC50 against CSF1R [1] is 6.00 to 6.30. For the same molecule, the values for the inhibition at 0.1 µM at CSF1R [2] (setting [3]) and on CSF1R [2] (setting [4]) were 88% and at least 80%, respectively. Besides, at CSF1R [2], the pKd is above 7.00.
For `CCCn1cc(OCC(F)F)c(C(=O)Nc2ccc(Oc3ccnc4cc(OC)c(OC)cc34)cn2)n1` [Compound 12] the same measures were above 6.30, 98%, at least 80% and above 7.00.
Take `COc1cc2nccc(Oc3ccc(NC(=O)c4n[nH]cc4OCC(F)(F)F)nc3)c2cc1OC` [Compound 16]: the pIC50 at CSF1R [1] is above 6.30. The inhibition at 0.1 µM is 99% on CSF1R [2] (setting [3]) and at least 80% on CSF1R [2] (setting [4]).
On CSF1R [1], `COc1cc2nccc(Oc3ccc(NC(=O)c4nn(CC5COC5)cc4OCC(F)(F)F)nc3)c2cc1OC` [Compound 92] gave a pIC50 above 6.30. The inhibition at 0.1 µM at CSF1R [2] (setting [3]) was 100%; on CSF1R [2] (setting [4]) it was at least 80%.
Molecule `COc1cc2nccc(Oc3ccc(NC(=O)c4nn(C5CCN(C)C5)cc4OCC(F)(F)F)cc3F)c2cc1OC` (centres unmarked) [Compound 96] had a pIC50 at CSF1R [1] of at most 6.00. Besides, the inhibition at 0.1 µM at CSF1R [2] (setting [3]) is 57%; on CSF1R [2] (setting [4]), 50 to 80%.
Molecule `COc1cc2nccc(Oc3ccc(NC(=O)c4nn(CC5COC5)cc4OCC(F)(F)F)cc3F)c2cc1OC` [Compound 97] had a pIC50 against CSF1R [1] of at most 6.00. The inhibition at 0.1 µM at CSF1R [2] (setting [3]) is 56%; at CSF1R [2] (setting [4]), 50 to 80%.
Regarding `COc1cc2nccc(Oc3ccc(NC(=O)c4nn(C5CCN(C)C5)cc4OCC(F)(F)F)cc3C)c2cc1OC` (centres unmarked) [Compound 98], the pIC50 on CSF1R [1] is at most 6.00. For the same molecule, the inhibition at 0.1 µM at CSF1R [2] (setting [3]) was 60%; at CSF1R [2] (setting [4]) it was 50 to 80%.
For `COc1cc2nccc(Oc3ccc(NC(=O)c4nn(CC5COC5)cc4OCC(F)(F)F)cc3C)c2cc1OC` [Compound 99], at CSF1R [1], the pIC50 is 6.00 to 6.30. Moreover, the figures for the inhibition at 0.1 µM at CSF1R [2] (setting [3]) and at CSF1R [2] (setting [4]) were 94% and at least 80%, respectively.
For the molecule `COc1cc2nccc(Oc3ccc(NC(=O)c4nn(C5CCN(C)C5)cc4OCC(F)(F)F)cc3)c2cc1OC` (centres unmarked) [Compound 100], at CSF1R [1], the pIC50 is at most 6.00. The inhibition at 0.1 µM was 36% on CSF1R [2] (setting [3]) and below 50% at CSF1R [2] (setting [4]).
Turning to `COc1cc2nccc(Oc3ccc(NC(=O)c4nn(CC5COC5)cc4OCC(F)(F)F)cc3)c2cc1OC` [Compound 101], on CSF1R [1], the pIC50 was at most 6.00. Moreover, the inhibition at 0.1 µM is 45% on CSF1R [2] (setting [3]) and below 50% at CSF1R [2] (setting [4]).
Take `COc1cc2nccc(Oc3ccc(NC(=O)c4nn(C)cc4OCC(F)(F)F)nn3)c2cc1OC` [Compound 102]: the pIC50 against CSF1R [1] is above 6.30. The inhibition at 0.1 µM was 87% at CSF1R [2] (setting [3]) and at least 80% at CSF1R [2] (setting [4]).
As to `COc1cc2nccc(Oc3ccc(NC(=O)c4nn(CC(C)C)cc4OCC(F)(F)F)cn3)c2cc1OC` [Compound 103], on CSF1R [1], the pIC50 was at most 6.00. Besides, the inhibition at 0.1 µM is 29% on CSF1R [2] (setting [3]) and below 50% at CSF1R [2] (setting [4]).
For `COCCn1cc(OCC(F)(F)F)c(C(=O)Nc2ccc(Oc3ccnc4cc(OC)c(OC)cc34)nc2)n1` [Compound 104], the pIC50 against CSF1R [1] was at most 6.00. In addition, the inhibition at 0.1 µM was 46% on CSF1R [2] (setting [3]) and below 50% on CSF1R [2] (setting [4]).
`CCCn1cc(OCCOC)c(C(=O)Nc2ccc(Oc3ccnc4cc(OC)c(OC)cc34)cn2)n1` [Compound 105]: at CSF1R [1], the pIC50 is above 6.30. In addition, the inhibition at 0.1 µM on CSF1R [2] (setting [3]) is 91%; at CSF1R [2] (setting [4]), at least 80%.
For `CCCn1cc(OCC2COC2)c(C(=O)Nc2ccc(Oc3ccnc4cc(OC)c(OC)cc34)cn2)n1` [Compound 106] the same measures were above 6.30, 95% and at least 80%.
`COCCOc1cn(C2CC2)nc1C(=O)Nc1ccc(Oc2ccnc3cc(OC)c(OC)cc23)cn1` [Compound 107] had a pIC50 at CSF1R [1] above 6.30. The inhibition at 0.1 µM at CSF1R [2] (setting [3]) is 90%; on CSF1R [2] (setting [4]), at least 80%.
